Laboratory results published in patent publication US11518779B2, “Inhibitors of DNMT1 as anticancer therapeutic agents” (Victoria Link Limited, priority 2018, dated 2022).

Target: DNMT1 (Homo sapiens, UniProt P26358)
Assay: DNMT1 inhibition assay (transfer of radioactivity from [Me-3H]-SAM to hemimethylated double-stranded DNA)
Assay type: biochemical
Settings: 100 nM DNMT1, 1 μM [Me-3H]-SAM, 1 μM 26 bp hemimethylated DNA substrate, 37° C., 2 hours
Source text: Human DNMT1 C-terminal catalytic domain gene was codon-optimised for E. coli by DNA2.0. The gene was cloned into the pD431-SR vector, KanR resistance, inducible by IPTG. The codon-optimisation gave yields 5 to 10 times greater than previously published reports (e.g. Song, J., Rechkoblit, O., Bestor, T. H., and Patel, D. J., (2011) Science 331(6020): 1036-1040; and Song, 3., Teplova, M., Ishibe-Murakami, S., and Patel, D. J., (2012) Science 335(6069): 709-712). The protein construct has N-terminal His-tag, a SUMO tag, a SUMO protease cleavage site, and the DNMT-catalytic domain.
DNMT1 inhibitors were assayed by measuring the transfer of radioactivity from tritiated S-adenosylmethionine (SAM) to double-stranded DNA (Du, Q., Z. Wang, Z., and Schramm, V. L., Proc. Natl. Acad. Sci. USA, 2016, 113, 2916-2921). The double stranded DNA molecule contains exactly one hemimethylated CpG located in the centre of the sequence. The design allows one methylation occurrence per DNA molecule, preventing any processive methylation along or across the strand.
[Me-^3H] S-Adenosyl methionine ([Me-^3H]-SAM) was enzymatically synthesized using bacterial chlorinase (SaIL) enzyme (Nat Chem Biol. 2008 Jan.; 4 (1):69-74. Epub 2007 Dec. 2. Discovery and characterization of a marine bacterial SAM-dependent chlorinase. Eustáquio AS^1, Pojer F, Noel J P, Moore B S.), starting from 5′-Chloro-5′-deoxyadenosine and L-[Methyl-^3H]-Methionine (Org Biomol Chem. 2016 Jul. 14; 14(26):6189-92. doi: 10.1039/c6ob00844e. Epub 2016 Jun. 6. Chemoenzymatic synthesis and utilization of a SAM analog with an isomorphic nucleobase. Vranken C^1, Fin A, Tufar P, Hofkens J, Burkart M D, Tor Y.). A reaction (500 μL) containing 500 μCi L-[Methyl-3H]-Methionine (PerkinElmer), 0.3 mM unlabeled methionine, 1 mM 5′-Chloro-5′-deoxyadenosine, 50 mM phosphate buffer pH 7.6 and 20 μM SaIL enzyme was incubated at room temperature. After 2 hours of incubation, reaction was stopped using 50 mM sulfuric acid. The [Me-^3H]-SAM was purified using C-18 reverse-phase HPLC using a gradient (buffer A: 50 mM ammonium acetate pH 4.3; buffer B: 0.1% acetic acid and 50% acetonitrile). The fractions containing [Me-^3H]-SAM were pooled and lyophilized overnight. Purified [Me-^3H]-SAM was always kept frozen at −80° C. until further use.
The DNMT1 assays were carried to determine the IC50 with transition state analogs. The reaction (100 μL) containing 50 mM Tris-HCl pH 8.0, 100 mM KCl, 50 ug/mL BSA, 2 mM DTT, 1 μM freshly prepared [Me-3H]-SAM, 1 μM 26 bp hemimethylated DNA substrate and varying concentrations of each inhibitor ([…]), incubated at 37° C. with 100 nM DNMT1. The reaction fractions (50 μL) were taken at 2 hours. The methylated DNA was purified by using Micro Bio-spin P-30 columns (Bio-Rad). Purified samples were mixed with 10 mL of scintillation liquid (PerkinElmer), and counted for radioactivity in a Tricarb 2910 TR scintillation counter (PerkinElmer). The values obtained in the absence of DNMT1 in the reaction were used as controls. The assay data were analyzed using GraphPad Prism for IC50 calculations. The hemimethylated DNA sequences used in the assays contained 26 bp, as follows: 26a oligo 5′-[…]-3′ [SEQ ID No. 1], and 26bm oligo 5′-ACTCATACCAAT/iMe-dC/GATACCAAGGTAG-3′ [SEQ ID No. 2], where iMe-dC is a 5-methyl-C base.
IC50 values were obtained from plots of percent inhibition versus inhibitor concentration.

Chain of DNMT1 (P26358 whole entry, looked up): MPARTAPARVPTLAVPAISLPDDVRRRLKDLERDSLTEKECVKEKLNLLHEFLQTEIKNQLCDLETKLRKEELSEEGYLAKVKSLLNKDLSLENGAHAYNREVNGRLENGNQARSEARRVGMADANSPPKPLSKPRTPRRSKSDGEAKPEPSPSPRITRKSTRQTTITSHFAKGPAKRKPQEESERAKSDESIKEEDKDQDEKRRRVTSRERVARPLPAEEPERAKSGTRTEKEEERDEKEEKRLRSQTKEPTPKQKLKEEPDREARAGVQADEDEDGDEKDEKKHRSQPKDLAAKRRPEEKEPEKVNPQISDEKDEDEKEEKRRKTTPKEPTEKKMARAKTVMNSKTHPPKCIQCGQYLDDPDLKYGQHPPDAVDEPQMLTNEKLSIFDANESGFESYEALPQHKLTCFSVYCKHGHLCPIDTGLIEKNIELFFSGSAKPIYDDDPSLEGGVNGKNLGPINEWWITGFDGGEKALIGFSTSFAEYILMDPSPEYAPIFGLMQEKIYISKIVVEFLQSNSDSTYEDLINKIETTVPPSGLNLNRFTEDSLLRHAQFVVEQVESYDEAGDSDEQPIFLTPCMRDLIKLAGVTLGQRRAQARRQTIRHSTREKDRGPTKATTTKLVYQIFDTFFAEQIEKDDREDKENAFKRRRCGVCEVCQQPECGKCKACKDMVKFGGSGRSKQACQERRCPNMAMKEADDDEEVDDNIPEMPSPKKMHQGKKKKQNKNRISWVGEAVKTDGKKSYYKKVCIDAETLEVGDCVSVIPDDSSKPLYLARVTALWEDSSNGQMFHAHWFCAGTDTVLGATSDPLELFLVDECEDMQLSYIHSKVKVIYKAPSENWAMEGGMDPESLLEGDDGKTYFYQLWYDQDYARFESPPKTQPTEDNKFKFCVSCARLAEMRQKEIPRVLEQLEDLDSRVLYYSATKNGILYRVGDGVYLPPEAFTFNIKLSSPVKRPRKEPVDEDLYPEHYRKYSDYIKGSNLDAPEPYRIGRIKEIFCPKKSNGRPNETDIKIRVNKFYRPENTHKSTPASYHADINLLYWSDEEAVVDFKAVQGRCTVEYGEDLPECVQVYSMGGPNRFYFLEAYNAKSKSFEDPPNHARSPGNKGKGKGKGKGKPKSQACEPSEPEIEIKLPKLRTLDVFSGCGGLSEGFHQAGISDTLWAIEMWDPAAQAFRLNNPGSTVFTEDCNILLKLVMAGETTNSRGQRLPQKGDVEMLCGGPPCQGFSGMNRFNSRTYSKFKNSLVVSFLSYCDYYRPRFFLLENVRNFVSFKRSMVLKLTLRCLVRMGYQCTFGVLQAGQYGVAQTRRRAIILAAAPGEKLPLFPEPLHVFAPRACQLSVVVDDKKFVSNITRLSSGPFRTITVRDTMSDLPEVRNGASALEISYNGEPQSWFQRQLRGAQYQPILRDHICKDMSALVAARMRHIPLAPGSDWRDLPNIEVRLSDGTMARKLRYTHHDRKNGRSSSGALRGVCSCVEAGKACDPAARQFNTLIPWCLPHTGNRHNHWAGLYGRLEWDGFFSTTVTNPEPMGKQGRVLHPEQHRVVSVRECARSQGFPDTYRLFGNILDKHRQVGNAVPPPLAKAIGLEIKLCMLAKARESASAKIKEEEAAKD

Structure (SMILES)	IC50
NC1=NC(=O)N([C@H]2C[C@H](O)[C@@H](CO)O2)CN1CCCCCN(CC[C@H](N)C(=O)O)C[C@H]1O[C@@H](n2cnc3c(N)ncnc32)[C@H](O)[C@@H]1O [Compound 86, (S)-2-amino-4-((5-(6-amino-3-((2R,4S,5R)-4-hydroxy-5-(hydroxymethyl)tetrahydrofuran-2-yl)-4-oxo-3,4-dihydro-1,3,5-triazin-1(2H)-yl)pentyl)(((2R,3S,4R,5R)-5-(6-amino-9H-purin-9-yl)-3,4-dihydroxytetrahydrofuran-2-yl)methyl)amino)butanoic acid]	6 ± 1.8 µM
Nc1nc(=O)n(C2C[C@H](O)[C@@H](CO)O2)cc1SCCN(CC[C@H](N)C(=O)O)C[C@H]1O[C@@H](n2cnc3c(N)ncnc32)[C@H](O)[C@@H]1O (stereo in doubt) [Compound 42, (S)-2-amino-4-((2-((4-amino-1-((2S,4S,5R)-4-hydroxy-5-(hydroxymethyl)tetrahydrofuran-2-yl)-2-oxo-1,2-dihydropyrimidin-5-yl)thio)ethyl)(((2R,3S,4R,5R)-5-(6-amino-9H-purin-9-yl)-3,4-dihydroxytetrahydrofuran-2-yl)methyl)amino)butanoic acid]	15.4 ± 6.2 µM
Nc1nc(=O)n([C@H]2C[C@H](O)[C@@H](CO)O2)cc1CNCC(CC[C@H](N)C(=O)O)C[C@H]1O[C@@H](n2cnc3c(N)ncnc32)[C@H](O)[C@@H]1O (stereo partly drawn) [Compound 70, 2-amino-5-[[[4-amino-1-[(2R,4S,5R)-4-hydroxy-5-(hydroxymethyl)tetrahydrofuran-2-yl]-2-oxo-pyrimidin-5-yl]methylamino]methyl]-6-[(2R,3S,4R,5R)-5-(6-aminopurin-9-yl)-3,4-dihydroxy-tetrahydrofuran-2-yl]hexanoic acid]	2.2 ± 0.5 µM

These reach a lower IC50. Values come first.

IC50	Structure (SMILES)
1.9 ± 0.1 µM	Nc1nc(=O)n(C2C[C@H](O)[C@@H](CO)O2)cc1CCN(CC[C@H](N)C(=O)O)C[C@H]1O[C@@H](n2cnc3c(N)ncnc32)[C@H](O)[C@@H]1O (stereo in doubt) [Compound 56, (S)-2-amino-4-((2-(4-amino-1-((2S,4S,5R)-4-hydroxy-5-(hydroxymethyl)tetrahydrofuran-2-yl)-2-oxo-1,2-dihydropyrimidin-5-yl)ethyl)(((2R,3S,4R,5R)-5-(6-amino-9H-purin-9-yl)-3,4-dihydroxytetrahydrofuran-2-yl)methyl)amino)butanoic acid]
0.8 ± 0.1 µM	Nc1nc(=O)n(C2C[C@H](O)[C@@H](CO)O2)cc1CCCN(CC[C@H](N)C(=O)O)C[C@H]1O[C@@H](n2cnc3c(N)ncnc32)[C@H](O)[C@@H]1O (stereo in doubt) [Compound 33, (S)-2-amino-4-((3-(4-amino-1-((2S,4S,5R)-4-hydroxy-5-(hydroxymethyl)tetrahydrofuran-2-yl)-2-oxo-1,2-dihydropyrimidin-5-yl)propyl)(((2R,3S,4R,5R)-5-(6-amino-9H-purin-9-yl)-3,4-dihydroxytetrahydrofuran-2-yl)methyl)amino)butanoic acid]
0.7 ± 0.1 µM	Nc1nc(=O)n([C@H]2C[C@H](O)[C@@H](CO)O2)cc1CN(CC[C@H](N)C(=O)O)C[C@H]1O[C@@H](n2cnc3c(N)ncnc32)[C@H](O)[C@@H]1O [Compound 7, (S)-2-amino-4-(((4-amino-1-((2R,4S,5R)-4-hydroxy-5-(hydroxymethyl)tetrahydrofuran-2-yl)-2-oxo-1,2-dihydropyrimidin-5-yl)methyl)(((2R,3S,4R,5R)-5-(6-amino-9H-purin-9-yl)-3,4-dihydroxytetrahydrofuran-2-yl)methyl)amino)butanoic acid]
